Laboratory results as given in the supplement of paper PMC10307832.

What was measured:
Assay in all cases: relative viability (nuclei count vs DMSO), 5 days (fraction); higher = more cells survive
[1] = compound: COc1cccc2cc(-c3nc([C@H]4CC[C@H](C(=O)O)CC4)n4ncnc(N)c34)[nH]c12 [OSI-027] + Cc1cc(Nc2cc(N3CCN(C)CC3)nc(Sc3ccc(NC(=O)C4CC4)cc3)n2)n[nH]1 [Tozasertib] (partner 0.1 µM)
In short: (§1)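 One day after seeding in 1536-well plates, lung cancer cell lines were dosed by pin tool. Dosing was either single-drug or a fixed anchor-drug dose plus five library-drug doses (not always all listed) in √10 steps. After 5 days, nuclei were stained in one fix-and-stain step and counted on 4× images, and relative viability is the nuclei count of treated wells over that of vehicle wells, given as the median of duplicate plates.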

[2] = compound: COc1cccc2cc(-c3nc([C@H]4CC[C@H](C(=O)O)CC4)n4ncnc(N)c34)[nH]c12 [OSI-027] + C[C@]1(O)C[C@@H](c2nc(-c3ccc4ccc(-c5ccccc5)nc4c3)c3c(N)nccn32)C1 [Linsitinib] (partner 1 µM)
In short: as §1

[3] = compound: CCCS(=O)(=O)Nc1ccc(F)c(C(=O)c2c[nH]c3ncc(-c4ccc(Cl)cc4)cc23)c1F [Vemurafenib] + O=C(c1cc(Cc2n[nH]c(=O)c3ccccc23)ccc1F)N1CCN(C(=O)C2CC2)CC1 [Olaparib] (partner 8 µM)
In short: as §1

[4] = compound: COc1cccc2cc(-c3nc([C@H]4CC[C@H](C(=O)O)CC4)n4ncnc(N)c34)[nH]c12 [OSI-027] + CC(C)C[C@H](NC(=O)[C@H](Cc1ccccc1)NC(=O)c1cnccn1)B(O)O [Bortezomib] (partner 0.002 µM)
In short: as §1

How did the relative viability ([1]; first compound 0.01 µM) turn out when UMC-11 was run?
Its relative viability is 0.235.

And the relative viability ([1]; first compound 0.03162 µM)?
The relative viability was 0.208.

What about the relative viability ([1]; first compound 0.1 µM) of the same cell line?
Its relative viability is 0.203.

What about the relative viability ([1]; first compound 0.3162 µM) of the same cell line?
The relative viability was 0.204.

And the relative viability ([1]; first compound 1 µM)?
Its relative viability is 0.2.

What about the relative viability ([2]; first compound 0.01 µM) of the same cell line?
The relative viability was 1.

What about the relative viability ([2]; first compound 0.03162 µM) of the same cell line?
The relative viability was 1.04.

What about the relative viability ([2]; first compound 0.1 µM) of the same cell line?
The relative viability was 0.944.

And the relative viability ([2]; first compound 0.3162 µM)?
Its relative viability is 0.676.

What about the relative viability ([2]; first compound 1 µM) of the same cell line?
Its relative viability is 0.468.

What about the relative viability ([3]; first compound 0.03162 µM) of the same cell line?
Its relative viability is 0.391.

What about the relative viability ([3]; first compound 0.1 µM) of the same cell line?
Its relative viability is 0.4.

What about the relative viability ([3]; first compound 0.3162 µM) of the same cell line?
Its relative viability is 0.392.

And the relative viability ([3]; first compound 1 µM)?
The relative viability was 0.375.

What about the relative viability ([4]; first compound 0.01 µM) of the same cell line?
Its relative viability is 0.565.

And the relative viability ([4]; first compound 0.03162 µM)?
Its relative viability is 0.646.

What about the relative viability ([4]; first compound 0.1 µM) of the same cell line?
Its relative viability is 0.696.

What about the relative viability ([4]; first compound 0.3162 µM) of the same cell line?
The relative viability was 0.668.

And the relative viability ([4]; first compound 1 µM)?
The relative viability was 0.503.
